Source: patent publication US20190314379A1, “METHODS OF USING CANNABINOID CB2 RECEPTOR AGONIST COMPOSITIONS TO SUPPRESS AND PREVENT OPIOID TOLERANCE AND WITHDRAWAL IN A SUBJECT” (Indiana University Research and Technology Corporation, priority 2018, published 2019)

Tests used:
keratinocytes = settings: cited from earlier work
[1] = system: Walker 256 tumor-bearing rats; settings: cited from earlier work
[2] = system: μ-opioid receptor expression; settings: spinal cord and dorsal root ganglia (DRG); cited from earlier work
[3] = system: formalin model of inflammatory pain; settings: coadministration; cited from earlier work
[4] = system: paclitaxel-induced neuropathic pain; settings: 8 days once daily (i.p.) dosing or chronic infusion over 4 weeks; cited from earlier work
[5] = system: paclitaxel-induced mechanical allodynia; experiment: Paclitaxel-induced mechanical allodynia (electronic von Frey); type: in vivo, mouse
Procedure: (§1) In all studies, the experimenter was blinded to the treatment condition, and mice were randomly assigned to experimental conditions. Paclitaxel (4 mg/kg i.p.) was administered four times on alternate days (cumulative dose, 16 mg/kg i.p.) to induce neuropathic pain as described previously by our group (Deng et al., 2015). Control mice received an equal volume of cremophor-vehicle. Development of paclitaxel-induced allodynia was assessed on day 0, 4, 7, 11, and 14.
(§2) Effects of pharmacologic manipulations were assessed at 30 minutes after drug administration during the maintenance phase of paclitaxel-induced neuropathy (i.e., beginning day 18-20 after initial paclitaxel injection).
(§3) In experiments 2 and 3, pharmacologic manipulations were performed once daily for 12 consecutive days in each of the two phases of chronic treatment. Four days separated phase 1 and phase 2 chronic dosing in all studies comprising two phases of chronic dosing. Experiments 2 and 3 were performed concurrently using overlapping cohorts that were tested with a single vehicle (phase 1), vehicle (phase 2) group.
(§4) We then assessed the antiallodynic efficacy of chronic systemic administration of vehicle or morphine (10 mg/kg per day i.p.×12 days) administered during phase 2 in the same animals. Responsiveness to mechanical and cold stimulation was evaluated on treatment days 1, 4, 8, and 12 during phase 1 and on treatment days 16, 19, 23, and 27 during phase 2 (i.e., phase 2 started on day 16).
(§5) In experiment 4, we evaluated the impact of coadministration of morphine (10 mg/kg i.p.×12 days) with a submaximal dose of LY 2828360 (0.1 mg/kg per day i.p.×12 days) in WT and CB2 KO mice.
Paw withdrawal thresholds (grams) to mechanical stimulation were measured in duplicate for each paw using an electronic von Frey anesthesiometer supplied with a 90-g probe (model Alemo 2390-5; IITC, Woodland Hills, Calif.) as described previously. Mice were placed on an elevated metal mesh table and allowed to habituate under individual, inverted plastic cages to the testing platform for at least 20 minutes until exploratory behavior had ceased. Alter the habituation period, a force was applied to the midplantar region of the hind paw with a semiflexible tip connected to the anesthesiometer. Mechanical stimulation was terminated when the animal withdrew its paw, and the value of the applied force was recorded in grams. Mechanical paw withdrawal thresholds were obtained in duplicate for each paw and are reported as the mean of duplicate determinations from each animal, averaged across animals, for each group.

[6] = system: naloxone-precipitated opioid withdrawal; experiment: Naloxone-precipitated opioid withdrawal in paclitaxel-treated mice; type: in vivo, mouse; settings: paclitaxel-treated WT mice
Procedure: Alter the last injection of morphine (on day 28 for two-phase treatments, on day 13 for coadministration treatment), we challenged WT or CB2KO mice from experiments 2, 3, and 4 with vehicle, followed 30 minutes later by naloxone (5 mg/kg i.p.) to precipitate opioid receptor-mediated withdrawal. Mice were video-recorded for subsequent scoring of withdrawal-like behaviors for a 30-minute interval after challenge with vehicle or naloxone.
Mice were video-taped, and the number of jumps was scored in 5-minute intervals for a total observation period of 30 minutes after challenge with either saline or naloxone (5 mg/kg i.p.).

[7] = system: paclitaxel-induced cold allodynia; experiment: Paclitaxel-induced cold allodynia (acetone); type: in vivo, mouse
Procedure: as §1, §2, §3, §4, §5
Response time (seconds) spent attending to (i.e., elevating, licking, biting, or shaking) the paw stimulated with acetone (Sigma-Aldrich) was measured in triplicate for each paw to assess cold allodynia as previously published. An acetone bubble (approximately 5 to 6 p.1) formed at the end of a blunt 1-ml syringe hub was gently applied to the plantar surface of the hind paw. Care was taken not to apply mechanical stimulation to the hind paw with the syringe itself. The total time the animal spent attending to the acetone-stimulated paw (i.e., elevation, shaking, or licking) was recorded over 1 minute after acetone application. Acetone was applied three times to each paw with a 3-minute interval between applications. Values for each animal were calculated as the mean of six determinations of acetone responsiveness derived from each mouse.

human CB2 = human CB2 (Homo sapiens, UniProt P34972); experiment: Forskolin-stimulated cAMP accumulation (cyclase), HEK hCB2; type: cell-based; design: expressed in transfected cells
Chain of human CB2 (P34972 whole entry): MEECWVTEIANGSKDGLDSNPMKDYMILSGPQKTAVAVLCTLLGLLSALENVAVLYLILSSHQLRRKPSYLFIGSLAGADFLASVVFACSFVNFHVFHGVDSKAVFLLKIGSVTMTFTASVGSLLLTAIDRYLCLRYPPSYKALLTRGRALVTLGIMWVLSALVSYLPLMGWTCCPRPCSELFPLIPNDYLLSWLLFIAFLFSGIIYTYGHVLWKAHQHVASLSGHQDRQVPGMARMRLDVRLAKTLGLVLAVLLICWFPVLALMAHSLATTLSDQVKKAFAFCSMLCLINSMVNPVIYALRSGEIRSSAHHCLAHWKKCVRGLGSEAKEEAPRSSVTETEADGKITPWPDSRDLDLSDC

mouse CB2 receptors = molecular target: T1, mouse CB2 receptors (Mus musculus, UniProt P47936); experiment: Forskolin-stimulated cAMP accumulation (cyclase), HEK mCB2; type: cell-based
T1 construct: expressed in transfected cells
T1 sequence (P47936 whole entry): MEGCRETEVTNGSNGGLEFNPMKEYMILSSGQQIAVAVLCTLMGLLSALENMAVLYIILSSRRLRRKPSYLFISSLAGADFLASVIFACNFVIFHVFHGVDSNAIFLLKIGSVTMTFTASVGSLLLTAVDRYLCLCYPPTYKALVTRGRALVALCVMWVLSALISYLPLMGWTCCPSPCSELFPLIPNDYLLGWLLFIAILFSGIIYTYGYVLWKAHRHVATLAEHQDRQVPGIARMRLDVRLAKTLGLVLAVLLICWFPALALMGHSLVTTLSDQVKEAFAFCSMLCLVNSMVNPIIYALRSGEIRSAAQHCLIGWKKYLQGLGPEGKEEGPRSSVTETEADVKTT

[8] = system: morphine analgesia and antinociceptive tolerance; settings: rats, with morphine; cited from earlier work
[9] = system: preclinical inflammatory, postoperative, and neuropathic pain; settings: dose- and time-dependent; cited from earlier work
[10] = WT mice, 5 mg/kg per day i.p.×12 days
[11] = WT mice, AM1710 5 mg/kg per day×12 days phase I, morphine 10 mg/kg per day×12 days phase II
[12] = paclitaxel-treated WT mice, 5 mg/kg per day i.p.×12 days, vs vehicle

For `CN1CCCCC1Cn1cc(C(=O)c2cc([N+](=O)[O-])ccc2I)c2ccccc21` (centres unmarked) [AM1241], the “release of β-endorphin” value (keratinocytes) is given as “stimulated the release of the endogenous opioid β-endorphin”, the morphine tolerance ([1]; low dose coadministered with morphine) is given as “reduced the morphine tolerance” and the “opioid-mediated antinociception, hotplate and mechanical sensitivity” value ([1]; tumor-bearing rats) is given as “modest enhancement of opioid-mediated antinociception”. The μ-opioid receptor expression [2] was “upregulated μ-opioid receptor expression”.

In the case of `CCCC(C)(C)c1ccc2c(c1)OC(C)(C)[C@@H]1CC=C(C)C[C@@H]21` [JWH133], the opioid-sparing effects [3] is given as “exhibited opioid-sparing effects”.

For `CCCCCCC(C)(C)c1cc(O)c2c(c1)oc(=O)c1ccc(OC)cc12` [AM1710, 3-(1,1-dimethyl-heptyl)-1-hydroxy-9-methoxy-benzo(c) chromen-6-one], the “paclitaxel-induced neuropathic pain, tolerance and physical dependence” value [4] is given as “suppresses paclitaxel-induced neuropathic pain without producing tolerance or physical dependence”, the “tolerance to antiallodynic effects over repeated administration, mechanical” value [5, 10] is given as “tolerance did not develop” and the “development of tolerance to phase II morphine, mechanical” value [5, 11] is given as “delayed the development of tolerance to morphine”. For the same molecule, the “mechanical paw withdrawal thresholds, chronic phase I treatment” value [5, 12] was “increased mechanical paw withdrawal thresholds”, the “naloxone-precipitated jumps, AM1710 (I)-morphine (II) vs vehicle (I)-vehicle (II)” value [6] was “did not differ” and the “number of naloxone-precipitated jumps, AM1710 (I)-morphine (II) vs vehicle (I)-morphine (II)” value ([6]; AM1710 5 mg/kg i.p.×12 days, morphine 10 mg/kg i.p.×12 days) was “lower”. The “tolerance to antiallodynic effects over repeated administration, cold” value [7, 10] was “tolerance did not develop”, the “development of tolerance to phase II morphine, cold” value [7, 11] was “delayed the development of tolerance to morphine” and the “cold response time, chronic phase I treatment” value [7, 12] was “reduced the heightened cold response time”. For the same molecule, the “cAMP levels, compound alone (no forskolin)” value (human CB2; HEK hCB2) was “alone did not change the cAMP levels”, the “duration of decrease in cAMP” value (human CB2; HEK hCB2) was “up to 30 minutes” and the “inhibition of forskolin-induced cAMP levels, time course” value (human CB2; HEK hCB2, 1 μM final concentration) was “induced a delayed and persistent inhibition of forskolin-stimulated cAMP levels, starting at 10 minutes”. The “inhibition of forskolin-stimulated cAMP after PTX pretreatment” value (human CB2; HEK hCB2, 1 μM final concentration, PTX) was “blocked the inhibition of forskolin-stimulated cAMP”, the “cAMP levels vs forskolin alone in PTX-treated cells” value (human CB2; HEK hCB2, with forskolin, 5 minutes, PTX) was “increased cAMP levels compared with forskolin alone” and the “time by which inhibition of forskolin-stimulated cAMP dissipated” value (mouse CB2 receptors; HEK mCB2, 1 μM) was ≤ 15 min. The “forskolin-induced cAMP levels” value (mouse CB2 receptors; HEK mCB2, 1 μM final concentration, 5 minutes) was “attenuated forskolin-induced cAMP levels”, the “cAMP levels in the absence of forskolin” value (mouse CB2 receptors; HEK mCB2, compound alone) was “alone did not change cAMP levels” and the “cAMP levels in the absence of forskolin at 10 minutes” value (mouse CB2 receptors; HEK mCB2, compound alone, 10 minutes) was “decreased cAMP levels below the basal/no forskolin level”. For the same molecule, the “forskolin-stimulated cAMP after PTX treatment” value (mouse CB2 receptors; mCB2, 1 μM, PTX 300 ng/ml overnight) was “abolished the decrease in forskolin-stimulated cAMP”.

In the case of `CCCn1c(C)c(C(=O)c2cccc3ccccc23)c2ccccc21` [JWH015], the “morphine analgesia and morphine antinociceptive tolerance” value [8] is listed as “increased morphine analgesia and morphine antinociceptive tolerance” and the “pain inhibition on coadministration with morphine” value [9] is listed as “synergistically inhibited preclinical inflammatory, postoperative, and neuropathic pain”.
